Measured values taken from paper PMC7539012, “Hyperphosphorylated tau aggregation and cytotoxicity modulators screen identified prescription drugs linked to Alzheimer's disease and cognitive functions” (Scientific Reports, 2020).
Where a name gives a salt, the structure may show the parent alone.

Each compound was assayed on T1, 1N4R p-tau (assay: p-tau aggregation modulator screen of 1280-compound library (ThS fluorescence net change over 16 h)). Details: not given.
T1 construct: made in house; host or cells: E. coli (PIMAX system)
Format: biochemical
Set-up: key to PTAI>2SD: *: PTAI>2SD; key to PTAI>3SD: *: PTAI>3SD
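Wherever ThS net change is given: 30 µM compound with 6 µM p-tau over 16 h.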

Compound | ThS net change
COc1cccc2c1C(=O)c1c(O)c3c(c(O)c1C2=O)C[C@@](O)(C(=O)CO)C[C@@H]3O[C@H]1C[C@H](N)[C@H](O)[C@H](C)O1 [Doxorubicin hydrochloride] | 249
CC1(C)[C@H](C(=O)O)N2C(=O)C[C@H]2S1(=O)=O [Sulbactam] | 463
CN(C)CCc1c[nH]c2ccc(Cn3cncn3)cc12 [Rizatriptan benzoate] | 473
C=C(NC(=O)C(=C)NC(=O)c1csc(C2=N[C@@H]3c4csc(n4)[C@H]4NC(=O)c5csc(n5)[C@H]([C@](C)(O)[C@@H](C)O)NC(=O)[C@H]5CSC(=N5)/C(=C/C)NC(=O)[C@H]([C@@H](C)O)NC(=O)c5csc(n5)[C@]3(CC2)NC(=O)[C@H](C)NC(=O)C(=C)NC(=O)[C@H](C)NC(=O)[C@H]([C@@H](C)CC)N[C@@H]2C=Cc3c([C@H](C)O)cc(nc3[C@H]2O)C(=O)O[C@@H]4C)n1)C(N)=O [Thiostrepton] | 503
CC[N+](C)(CC)CCC[n+]1c(-c2ccccc2)c2cc(N)ccc2c2ccc(N)cc21.[I-].[I-] [Propidium iodide] | 269

Same assay, conditions: 1280-compound library screen; ThS fluorescence net change over 16 h

Compound | ThS net change
CC(=O)OCC(=O)[C@@]1(O)CC[C@H]2[C@@H]3CCC4=CC(=O)C=C[C@]4(C)[C@@]3(F)[C@@H](O)C[C@@]21C [Isoflupredone acetate] | 388
C[N+]12CCC(CC1)C(OC(=O)C(O)(c1ccccc1)c1ccccc1)C2 (stereo not drawn) [Clidinium bromide] | 389
Nc1ccc(S(=O)(=O)c2ccc(N)cc2)cc1 [Dapsone] | 382
Minoxidil | 412
COc1cc(N)c(Cl)cc1C(=O)NC1CCN(Cc2ccccc2)CC1 [Clebopride maleate] | 406
Cn1nnc2c(C(N)=O)ncn2c1=O [Temozolomide] | 380
Cc1nccn1CC1CCc2c(c3ccccc3n2C)C1=O.Cl (stereo not drawn) [Ondansetron Hydrochloride] | 407
Clc1ccc2nsnc2c1NC1=NCCN1 [Tizanidine HCl] | 386
CNC(=C[N+](=O)[O-])NCCSCc1ccc(CN(C)C)o1 [Ranitidine hydrochloride] | 405
COc1cc2ncnc(Nc3ccc(F)c(Cl)c3)c2cc1OCCCN1CCOCC1 [Gefitinib] | 395
CC1(C)O[C@@H]2C[C@H]3[C@@H]4CCC5=CC(=O)CC[C@]5(C)[C@@]4(F)[C@@H](O)C[C@]3(C)[C@]2(C(=O)CCl)O1 [Halcinonide] | 384
O=c1[nH]c(=O)n([C@H]2C[C@H](O)[C@@H](CO)O2)cc1F [Floxuridine] | 388
O=C(CCCCCCC(=O)Nc1ccccc1)NO [Vorinostat] | 398
Nc1ncn(C2O[C@H](CO)[C@@H](O)[C@H]2O)c(=O)n1 (stereo partly drawn) [Azacytidine-5] | 405
COc1cc2nc(N(C)CCCNC(=O)C3CCCO3)nc(N)c2cc1OC (stereo not drawn) [Alfuzosin hydrochloride] | 391
CCn1cc(C(=O)O)c(=O)c2cnc(N3CCCC3)nc21 [Piromidic acid] | 394
NNC(=O)c1ccncc1 [Isoniazid] | 404

Same assay, conditions: 1280-compound library screen; […]

Compound | ThS net change
CC[C@@H](CO)NC(=O)[C@@H]1C=C2c3cccc4[nH]cc(c34)C[C@H]2N(C)C1 [Methylergometrine maleate] | 393
C[C@H](N)[C@H](O)c1ccc(O)c(O)c1 [Levonordefrin] | 387
C[C@]12Cc3c[nH]nc3C[C@@H]1CC[C@@H]1[C@@H]2CC[C@@]2(C)[C@H]1CC[C@]2(C)O [Stanozolol] | 403
CNC(C)(C)Cc1ccccc1.CNC(C)(C)Cc1ccccc1.O=S(=O)(O)O [Mephentermine hemisulfate] | 380
O=C(O)CCCc1ccc(N(CCCl)CCCl)cc1 [Chlorambucil] | 386
Oc1cc(Cl)ccc1Oc1ccc(Cl)cc1Cl [Triclosan] | 398

Same assay, conditions: flag: p-tau aggregation inhibitor, ThS net change more than 2 SD from mean

Compound | PTAI>2SD
CN(C)[C@@H]1C(O)=C(C(N)=O)C(=O)[C@@]2(O)C(O)=C3C(=O)c4c(O)ccc(Cl)c4[C@@H](O)[C@H]3C[C@@H]12 [Demeclocycline hydrochloride] | *

Same assay, conditions: flag: p-tau aggregation inhibitor, ThS net change more than 3 SD from mean

Compound | PTAI>3SD
O=C1c2cccc(O)c2C(=O)c2c(O)cccc21 [1,8-Dihydroxyanthraquinone] | *
COc1ccc(-c2cc(=S)ss2)cc1 [Anethole-trithione] | *

Same assay, conditions: library screen, ThS fluorescence net change over 16 h with p-tau

Compound | ThS net change
O=C1c2cccc(O)c2C(=O)c2c(O)cccc21 [1,8-Dihydroxyanthraquinone] | 25
CC(NC(C)(C)C)C(=O)c1cccc(Cl)c1 (stereo not drawn) [Bupropion hydrochloride] | 278
COCCOC(=O)C1=C(C)NC(C)=C(C(=O)OC/C=C/c2ccccc2)C1c1cccc([N+](=O)[O-])c1 (stereo not drawn) [Cilnidipine] | 230
COc1ccc(-c2cc(=S)ss2)cc1 [Anethole-trithione] | 46
CCCCOc1cc(C(=O)NCCN(CC)CC)c2ccccc2n1 [Dibucaine] | 296
Oc1c(Cl)cc(Cl)c2cccnc12 [Chloroxine] | 288
Clc1ccc(COC(Cn2ccnc2)c2ccc(Cl)cc2Cl)c(Cl)c1 (stereo not drawn) [Miconazole] | 316
CC(=O)c1ccc2c(c1)N(CCCN1CCC(CCO)CC1)c1ccccc1S2 [Piperacetazine] | 243
CN(C)[C@@H]1C(O)=C(C(N)=O)C(=O)[C@@]2(O)C(O)=C3C(=O)c4c(O)ccc(Cl)c4[C@@H](O)[C@H]3C[C@@H]12 [Demeclocycline hydrochloride] | 117

Same assay, conditions: p-tau aggregation modulator screen of 1280-compound library; ThS fluorescence net change

Compound | ThS net change
O=C(O)c1cc(=O)c2c(OCC(O)COc3cccc4oc(C(=O)O)cc(=O)c34)cccc2o1 [Cromolyn disodium salt] | 360
COC(=O)C1=C(C)NC(C)=C(C(=O)OC(C)C)C1c1cccc2nonc12 (stereo not drawn) [Isradipine] | 372
CN1CCC(=C2c3ccccc3CC(=O)c3sccc32)CC1 [Ketotifen fumarate] | 366
C[C@@H]1CCC[C@H](C)N1NC(=O)c1ccc(Cl)c(S(N)(=O)=O)c1 [Clopamide] | 369
NC(=O)N1c2ccccc2C=Cc2ccccc21 [Carbamazepine] | 370
N[C@@H](C(=O)N[C@@H]1C(=O)N2C(C(=O)O)=C(Cl)CC[C@H]12)c1ccccc1 [Loracarbef] | 361
Cc1cccc(C)c1NC(=O)CN1CCN(CCCC(c2ccc(F)cc2)c2ccc(F)cc2)CC1 [Lidoflazine] | 341
OC(Cn1cncn1)(Cn1cncn1)c1ccc(F)cc1F [Fluconazole] | 374
CS(=O)(=O)O.OC(CCN1CCCCC1)(c1ccccc1)c1ccccc1 [Pridinol methanesulfonate salt] | 350
O=C1c2ccccc2S(=O)(=O)N1CCCCN1CCN(c2ncccn2)CC1 [Ipsapirone] | 374
O=C(NCC1CCCCN1)c1cc(OCC(F)(F)F)ccc1OCC(F)(F)F (stereo not drawn) [Flecainide acetate] | 354
CC1(C)NC(=O)N(c2ccc([N+](=O)[O-])c(C(F)(F)F)c2)C1=O [Nilutamide] | 363
OCCN1CCN(CCCN2c3ccccc3Sc3ccc(Cl)cc32)CC1 [Perphenazine] | 328
OCCN1C[C@H](O)[C@@H](O)[C@H](O)[C@H]1CO [Miglitol] | 372

Same assay, conditions: p-tau aggregation modulator screen of 1280-compound library; […]

Compound | ThS net change
O=P(O)(O)C(Cl)(Cl)P(=O)(O)O [Clodronate] | 370
C=CCC1(CC(C)C)C(=O)NC(=O)NC1=O [Butalbital] | 374
Cl.O[C@@H]1CCCC[C@H]1N1CCC(c2ccccc2)CC1 [L(-)-vesamicol hydrochloride] | 360
CC(C)c1ccc2oc3nc(N)c(C(=O)O)cc3c(=O)c2c1 [Amlexanox] | 376

Same assay, conditions: p-tau aggregation modulator screen of the compound library, ThS fluorescence net change

Compound | ThS net change
CC(C)(Sc1cc(C(C)(C)C)c(O)c(C(C)(C)C)c1)Sc1cc(C(C)(C)C)c(O)c(C(C)(C)C)c1 [Probucol] | 414
COc1ccccc1OCC(O)CN1CCN(CC(=O)Nc2c(C)cccc2C)CC1 (stereo not drawn) [Ranolazine] | 414
O=C(OCCOCCO)c1ccccc1Nc1cccc(C(F)(F)F)c1 [Etofenamate] | 425
CS(=O)(=O)c1ccc([C@@H](O)[C@@H](CF)NC(=O)C(Cl)Cl)cc1 [Florfenicol] | 433
Cc1c(OCC(F)(F)F)ccnc1C[S+]([O-])c1nc2ccccc2[nH]1 (stereo not drawn) [Lansoprazole] | 510
CC[C@@]1(O)C(=O)OCc2c1cc1n(c2=O)Cc2cc3c(CN(C)C)c(O)ccc3nc2-1 [Topotecan] | 5499
CC(C)[C@H]1CC[C@H](C(=O)N[C@H](Cc2ccccc2)C(=O)O)CC1 [Nateglinide] | 413
CCCCCN(CCCCC)C(=O)C(CCC(=O)[O-])NC(=O)c1ccc(Cl)c(Cl)c1.[Na+] (stereo not drawn) [Lorglumide sodium salt] | 520
Cc1c(C)c2c(c(C)c1O)CCC(C)(C(=O)O)O2 (stereo not drawn) [Trolox] | 413
O=C1CC2(CCCC2)CC(=O)N1CCCCN1CCN(c2ncccn2)CC1 [Buspirone hydrochloride] | 445
COCCCOc1ccnc(C[S+]([O-])c2nc3ccccc3[nH]2)c1C (stereo not drawn) [Rabeprazole Sodium salt] | 420
O=c1[nH]c(=O)n([C@H]2C[C@H](O)[C@@H](CO)O2)cc1C(F)(F)F [Trifluridine] | 463
CC1(C)O[C@@H]2C[C@H]3[C@@H]4C[C@H](F)C5=CC(=O)C=C[C@]5(C)[C@@]4(F)[C@@H](O)C[C@]3(C)[C@]2(C(=O)CO)O1 [Fluocinolone acetonide] | 460
CC1NC(=O)NC1=O (stereo not drawn) [Methylhydantoin-5-(L)] | 449
C=C1C(=O)O[C@H]2[C@H]1CC/C(C)=C/CC[C@@]1(C)O[C@@H]21 [Parthenolide] | 434
COc1ccc(Cc2nccc3cc(OC)c(OC)cc23)cc1OC [Papaverine hydrochloride] | 427
CCCNC(=O)NS(=O)(=O)c1ccc(Cl)cc1 [Chlorpropamide] | 425
COc1nc(C)nc(Cl)c1N=C1NCCN1 [Moxonidine] | 433
C#C[C@]1(O)CC[C@H]2[C@@H]3CCC4=CC(=O)CC[C@@H]4[C@H]3CC[C@@]21CC [Norgestrel-(-)-D] | 424
Cc1[nH]c(=O)c(C#N)cc1-c1ccncc1 [Milrinone] | 423
